Read-outs that look alike come from different tables or passages of the source.
Experiments:
[1] = target: T1, purified recombinant human Aggrecanase-1 (rAgg1) (Homo sapiens, UniProt O75173); assay: In vitro fluorescence screen for Aggrecanase-1 inhibitors; assay type: biochemical; settings: for IC50: read-out: Agg1 IC50
T1 sequence (O75173 213-837): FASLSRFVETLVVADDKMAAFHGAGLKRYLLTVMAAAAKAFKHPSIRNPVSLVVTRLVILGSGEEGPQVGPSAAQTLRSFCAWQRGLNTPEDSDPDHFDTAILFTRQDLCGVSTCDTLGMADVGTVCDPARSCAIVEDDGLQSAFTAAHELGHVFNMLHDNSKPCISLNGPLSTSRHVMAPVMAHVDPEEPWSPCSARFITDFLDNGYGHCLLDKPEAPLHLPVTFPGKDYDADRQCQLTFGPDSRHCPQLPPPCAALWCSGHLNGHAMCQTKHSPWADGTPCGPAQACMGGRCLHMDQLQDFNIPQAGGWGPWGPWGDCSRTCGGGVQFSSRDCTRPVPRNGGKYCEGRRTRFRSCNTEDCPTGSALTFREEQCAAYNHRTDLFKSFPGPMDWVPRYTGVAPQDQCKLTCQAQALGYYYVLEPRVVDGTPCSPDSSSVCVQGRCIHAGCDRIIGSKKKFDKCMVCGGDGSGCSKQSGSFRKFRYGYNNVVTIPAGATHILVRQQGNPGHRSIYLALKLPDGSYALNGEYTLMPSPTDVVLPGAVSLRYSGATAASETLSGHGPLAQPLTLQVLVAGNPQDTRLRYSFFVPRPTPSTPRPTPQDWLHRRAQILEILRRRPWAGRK

[2] = test system: bovine articular cartilage treated with Interleukin 1 alpha (IL-1α); assay: Bovine articular cartilage explant cultures: inhibition of degradation of proteoglycan; assay type: cell-based; settings: inhibitory effect expressed as percentage, concentration not printed
Source text: This in vitro procedure was used to evaluate the effect and relative potencies of small molecule compounds to inhibit the degradation of proteoglycan in articular cartilage treated with Interleukin 1 alpha (IL-1α). Treatment of articular cartilage with IL 1α induces expression of a cascade of enzymes that initiates cartilage matrix degradation. This assay was utilized to select small molecule compounds that inhibit the enzyme activity and protects cartilage matrix degradation.
Articular cartilage: bovine metacarpal joints were disinfected with 10% Wescodyne followed by 70% ethanol. 6 mm articular cartilage discs were prepared and rinsed once in PBS and medium, respectively. The discs were cultured in a stirring flask with serum-free medium for 5 days for equilibrium with one medium change. Small molecule compounds: stock solutions of test small molecule compounds (usually at 5 mg/ml) were prepared in DMSO. Working solutions were diluted with DMSO and generally ranged from 0.1 μg/ml to 10 ug/ml. The DMSO stocks were stored at […]. Articular cartilage explant culture medium: DMEM, 2 mM glutamax, 100 U/ml of antibiotic and antimycotic, 50 μg/ml ascorbate and 10 mM Hepes (pH-7.0). Proteoglycan content-Dimethyl methylene blue (DMMB) solution: […] DMMB, 10 ml 100% ethanol, 29.5 ml of 1M NaOH, 3.5 ml of 98% formic acid and water to 1 L. Chondroitin sulphate sodium salt: 1.56-200 ug/ml serial dilutions.
For the explant culture, cartilage discs were cultured in serum-free medium for 48 h or more. Discs were weighed and transferred to a 96-well plate, 1 disc per-well. 0.2 ml of medium containing 5 ng/ml of IL-1 and different concentrations of compounds were added to each well, with 3 wells allocated for each treatment. The medium was collected at days 1, 2, & 3 and replaced accordingly.
For the DMMB assay, conditioned medium (CM) samples were diluted with medium. 10 ul of each standard or diluted sample was added in duplicate into a 96-well-plate and 200 μl of DMMB solution was added into each well. Absorbance at 520 nm was measured for each well. Proteoglycan contents in CM were calculated daily.
The proteoglycan contents are expressed as ug per mg of cartilage. The inhibitory effect of the compounds is expressed as percentage. (See, Tortorella, M. D. et al., Science 1999, 284, 1664-1666).

[3] = target: T2, recombinant human catalytic domain of MMP-13 (Homo sapiens, UniProt P45452); assay: In vitro fluorescence assay of MMP-13 activity; assay type: biochemical; settings: Table 2; nM printed in one cell only
T2 construct: catalytic domain of MMP-13 (165 amino acids, residues 104-268, 19 kDa)

[4] = target: T3, purified recombinant human Aggrecanase-2 (Ag2t-Phe628-Strep) (Homo sapiens, UniProt Q9UNA0); assay: In vitro fluorescence screen for Aggrecanase-2 inhibitors; assay type: biochemical; settings: for IC50: read-out: Agg 2 IC50; for Ki: read-out: Ki Agg2
T3 construct: the form used is denoted as Ag2t-Phe628-Strep (MW=41,737)
T3 sequence (Q9UNA0 262-628): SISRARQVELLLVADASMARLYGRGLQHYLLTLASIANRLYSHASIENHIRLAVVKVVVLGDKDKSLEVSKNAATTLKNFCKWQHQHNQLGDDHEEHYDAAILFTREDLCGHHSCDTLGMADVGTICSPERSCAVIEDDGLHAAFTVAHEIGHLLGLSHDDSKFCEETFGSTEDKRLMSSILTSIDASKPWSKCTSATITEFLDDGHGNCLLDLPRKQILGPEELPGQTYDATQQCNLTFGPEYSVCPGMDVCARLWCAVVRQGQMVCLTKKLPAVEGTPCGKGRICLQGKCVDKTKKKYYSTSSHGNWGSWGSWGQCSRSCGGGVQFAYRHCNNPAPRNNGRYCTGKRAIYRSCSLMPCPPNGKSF

[5] = Table 1, enzyme not given, column follows Agg1 IC50, read-out: Ki
[6] = Table 1, first of two columns headed bovine
[7] = Table 1, second of two columns headed bovine

Compound | IC50 ([1]; Table 1) [µM] | bovine [2, 6] [%] | bovine [2, 7] [%] | IC50 ([1]; Table 2) [µM] | IC50 [3] [nM] | IC50 ([4]; Table 2) [µM] | other results
O=C(O)CC[C@H](NC(=O)c1ccc(-c2ccccc2)cc1)C(=O)NCc1ccc(F)c(F)c1 [Example 8AAA, N^2-(1,1′-biphenyl-4-ylcarbonyl)-N^1-(3,4-difluorobenzyl)-L-α-glutamine] | 0.048 | 83 | 55 | – | – | – | Ki [1, 5]: 0.044 µM
CN(C)c1cccc(CNC(=O)[C@H](CCC(=O)O)NC(=O)c2ccc(-c3ccccc3)cc2)c1 [Example 8BBBB, N^2-(biphenyl-4-ylcarbonyl)-N^1-[3-(dimethylamino)benzyl]-L-α-glutamine] | 0.1 | 40 | 0 | – | – | – | –
O=C(O)CC[C@H](NC(=O)c1ccc(-c2ccccc2)cc1)C(=O)NCC1CC1 [Example 8CCC, N^2-(1,1′-biphenyl-4-ylcarbonyl)-N^1-(cyclopropylmethyl)-L-α-glutamine] | 0.1 | 74 | 26 | – | – | – | –
O=C(O)CC[C@H](NC(=O)c1ccc(-c2ccccc2)cc1)C(=O)NCCCc1ccccc1 [Example 8FF, N^2-(1,1′-biphenyl-4-ylcarbonyl)-N^1-(3-phenylpropyl)-L-α-glutamine] | 0.026 | 86 | 50 | – | – | – | Ki [1, 5]: 0.028 µM
CCCNC(=O)[C@H](CCC(=O)O)NC(=O)c1ccc2c(c1)Cc1ccccc1-2 [Example 8FFFFF, N^2-(9H-fluoren-2-ylcarbonyl)-N^1-propyl-L-α-glutamine] | – | – | – | 0.092 | > 100000 | 0.71 | –
O=C(O)CC[C@H](NC(=O)c1ccc(-c2ccccc2)cc1)C(=O)NCc1cccc(C(F)(F)F)c1 [Example 8GGG, N^2-(1,1′-biphenyl-4-ylcarbonyl)-N^1-[3-(trifluoromethyl)benzyl]-L-α-glutamine] | 0.1 | 57 | 12 | – | – | – | –
O=C(O)CC[C@H](NC(=O)c1ccc(-c2ccccc2)cc1)C(=O)NCCCCc1ccccc1 [Example 8II, N^2-(1,1′-biphenyl-4-ylcarbonyl)-N^1-(4-phenylbutyl)-L-α-glutamine] | 0.044 | 75 | 40 | – | – | – | Ki [1, 5]: 0.039 µM
O=C(O)CC[C@H](NC(=O)c1ccc(-c2ccccc2)cc1)C(=O)NCc1ccc(OC(F)(F)F)cc1 [Example 8T, N^2-(1,1′-biphenyl-4-ylcarbonyl)-N^1-[4-(trifluoromethoxy)benzyl]-L-α-glutamine] | 0.3 | 51 | 20 | – | – | – | –
O=C(O)CC[C@H](NC(=O)c1ccc(-c2ccccc2)cc1)C(=O)NCc1cccc(OC(F)(F)F)c1 [Example 8U, N^2-(1,1′-biphenyl-4-ylcarbonyl)-N^1-[3-(trifluoromethoxy)benzyl]-L-α-glutamine] | 0.2 | 63 | 26 | – | – | – | –
O=C(O)CC[C@H](NC(=O)c1ccc(-c2ccccc2)cc1)C(=O)NC1c2ccccc2-c2ccccc21 [Example 8YYYYY, N^2-(biphenyl-4-ylcarbonyl)-N^1-9H-fluoren-9-yl-L-α-glutamine] | – | – | – | 0.087 | ~20000 | 2.8 | –
CC(C)(Cc1ccc(F)cc1)NC(=O)[C@H](CCC(=O)O)NC(=O)c1ccc2c(c1)Cc1ccccc1-2 [Example 8ZZZZZ, N^2-(9H-fluoren-2-ylcarbonyl)-N^1-[2-(4-fluorophenyl)-1,1-dimethylethyl]-L-α-glutamine] | – | – | – | < 0.03 | > 100000 | 0.063 | –
COc1cccc(-c2ccc(C(=O)N[C@@H](CCC(=O)O)C(=O)NC(C)(C)Cc3ccccc3)cc2)c1 [Example 17I, N-(1,1-dimethyl-2-phenylethyl)-N^2-[(3′-methoxybiphenyl-4-yl)carbonyl]-L-α-glutamine] | – | – | – | < 0.03 | ~100000 | 0.217 | –
COc1cc(CNC(=O)C(CCC(=O)O)NC(=O)c2ccc(-c3ccc4c(c3)OCO4)cc2)cc(OC)c1OC (centres unmarked) [Example 17N, 4-(4-Benzo[1,3]dioxol-5-yl-benzoylamino)-4-(3,4,5-trimethoxy-benzylcarbamoyl)-butyric acid] | – | – | – | 0.04 | 11200 | 0.042 | –
COc1cc(CNC(=O)[C@H](CCC(=O)O)NC(=O)c2ccc(-c3ccc(C)c(F)c3)cc2)cc(OC)c1OC [Example 17R, N^2-[(3′-fluoro-4′-methylbiphenyl-4-yl)carbonyl]-N-(3,4,5-trimethoxybenzyl)-L-α-glutamine] | – | – | – | 0.073 | 6000 | 0.142 | –
COc1cc(COc2ccc(-c3ccc(C(=O)N[C@@H](CCC(=O)O)C(=O)NCc4cc(OC)c(OC)c(OC)c4)cc3)cc2)cc(OC)c1 [Example 18, N^2-({4′-[(3,5-dimethoxybenzyl)oxy]biphenyl-4-yl}carbonyl)-N-(3,4,5-trimethoxybenzyl)-L-α-glutamine] | – | – | – | 0.049 | ~1600 | 0.05 | –
CC(C)(Cc1ccccc1)NC(=O)[C@H](CCC(=O)O)NC(=O)c1ccc(-c2ccc(F)c(Cl)c2)s1 [N^2-{[5-(3-chloro-4-fluorophenyl)-2-thienyl]carbonyl}-N-(1,1-dimethyl-2-phenylethyl)-L-α-glutamine] | – | – | – | – | – | – | IC50 ([1]; Table 3): < 0.03 µM; Ki ([1]; Table 3, read-out: Ki Agg1): < 0.003 µM; IC50 ([4]; Table 3): 0.06 to 0.2 µM; Ki ([4]; Table 3): 0.156 µM
CC(C)(Cc1ccc(Cl)cc1)NC(=O)[C@H](CCC(=O)O)NC(=O)c1ccc(-c2ccc(F)c(Cl)c2)s1 [N^2-{[5-(3-chloro-4-fluorophenyl)-2-thienyl]carbonyl}-N-[2-(4-chlorophenyl)-1,1-dimethylethyl]-L-α-glutamine] | – | – | – | – | – | – | IC50 ([1]; Table 3): 0.06 µM; IC50 ([4]; Table 3): 3 µM
CC(C)(Cc1ccc(F)cc1)NC(=O)[C@H](CCC(=O)O)NC(=O)c1ccc(-c2ccc(F)c(Cl)c2)s1 [N^2-{[5-(3-chloro-4-fluorophenyl)-2-thienyl]carbonyl}-N-[2-(4-fluorophenyl)-1,1-dimethylethyl]-L-α-glutamine] | – | – | – | – | – | – | IC50 ([1]; Table 3): < 0.03 µM; Ki ([1]; Table 3, read-out: Ki Agg1): 0.0067 µM; IC50 ([4]; Table 3): 0.098 µM; Ki ([4]; Table 3): 0.045 µM
CC(C)(Cc1ccccc1)NC(=O)[C@H](CCC(=O)O)NC(=O)c1ccc(-c2ccc(Cl)s2)nc1 [N^2-{[6-(5-chloro-2-thienyl)pyridin-3-yl]carbonyl}-N-(1,1-dimethyl-2-phenylethyl)-L-α-glutamine] | – | – | – | – | – | – | IC50 ([1]; Table 3): 0.02 to 0.07 µM; Ki ([1]; Table 3, read-out: Ki Agg1): 0.0376 µM; IC50 ([4]; Table 3): 0.1 to 0.3 µM; Ki ([4]; Table 3): 0.359 µM
